Source: patent publication US20030050233A1, “Peptide combination for the treatment of cancer” (DABUR ONCOLOGY PLC, priority 2001, published 2003)
Where a SMILES comes first, the peptide text is derived from it. [ ]: non-standard residue; d: D form. The star is where a group is joined. Ac5c = NC1(C(=O)O)CCCC1; Aib = CC(C)(N)C(=O)O; Butyryl = CCCC(=O)*

Legend:
Type in all cases: cell-based
[1] = tested on: VEGF secreted by human breast adenocarcinoma cells (MDA.MB.453); assay: VEGF secretion ELISA; conditions: 4 hours, each peptide 10^-8 M
Experimental: Human breast adenocarcinoma cells (MDA.MB.453) were plated at the density of 8-10×10^5 cells per 2 ml in a six well plate. After an overnight incubation of cells at 37° C., individual peptides and different combinations of the peptides as shown in Table VIII were added to different wells such that the final concentration of each peptide was 10^−8 M. The untreated wells served as controls. The plates were incubated for 4 hours at 37° C. The medium was collected from all the wells (control and treated) and spun down at 2000 r.p.m to remove the cellular material. The supernatant was collected and used for ELISA (Quantikine human VEGF, R&D Systems). The assay employs the quantitative sandwich enzyme immunoassay technique. A monoclonal antibody specific for VEGF has been pre-coated onto a microplate. Standards and samples were pipeted into the wells and VEGF present was bound by the immobilized antibody. After washing away the unbound substances, an enzyme-linked polyclonal antibody specific for VEGF was added to the wells. Following a wash to remove any unbound antibody-enzyme reagent, a substrate solution was added to the wells and color developed in proportion to the amount of VEGF bound in the initial step. The optical density of each well was determined within 30 minutes using a microplate reader set to 450 nm and reference wavelength at 540 nm.

[2] = tested on: cAMP in breast cancer cells (MF7); assay: cAMP levels by enzyme linked sandwich immunosorbent assay; conditions: 30 minutes, final peptide concentration 10^-9 M, Forskolin 1 uM
Experimental: Enzyme linked sandwich immunosorbent assay was carried out on breast cancer cells (MF7) to study the modulation in levels of cAMP upon treatment with the peptides and their combinations. The cells were cultured in sterile 6 well plates at a density of 0.5×10^6/well in DMEM supplemented with 10% FCS, and allowed to adhere overnight. The medium was changed to DMEM and the cells were treated with appropriate concentrations of the peptide and its combinations, as shown in Table-IV, for 30 minutes, such that in each case the final peptide concentration was 10^−9M.
The cells were coincubated with Forskolin at a concentration of 1 uM. The cells were scraped using a cell scraper and pelleted. The cell pellet was suspended in appropriate resuspension buffer (50 mM Tris, containing EDTA, 0.2 mM phenyl methyl sulfonyl fluoride (PMSF), 1 ug/ml pepstatin and 0.5 ug/ml leupeptin adjusted to pH 7.4). The cell extracts were transferred to microcentrifuge tubes and centrifuged for 5 minutes at 10000×g. cAMP standards ranging in concentrations from 200 units/ml to 0 units/ml were prepared immediately prior to the start of the assay. Fluorescein isothiocyanate (FITC) conjugated monoclonal antibody directed to cAMP was added to microtitre wells precoated with primary monoclonal antibody against cAMP. 50 ul of sample lysates, and cAMP standards were added in duplicates in the microtitre wells containing both the monoclonals to cAMP. The wells were incubated at room temperature for 2 hours. The microtitre wells were washed thrice with appropriate wash buffer (PBS 50 mM, with Tween 0.5%) and the appropriate dilution of anti FITC horse radish peroxidase conjugate was added and incubated for 30 minutes. The microtitre wells were washed thrice with the wash buffer and subsequently with distilled water. Tetra-methylbenzidine was added to each well and incubated in dark for 30 minutes at room temperature. The absorbance was measured in each well at dual wavelength of 450/595 nm within 30 minutes of the addition of stop solution and the amount of cAMP present in the cell samples calculated.

[3] = tested on: tyrosine phosphatase in pancreatic cancer cells (MiaPaCa2); assay: Tyrosine phosphatase induction, colorimetric; conditions: 30 minutes, final peptide concentration 10^-9 M
Experimental: The quantitation of tyrosine phosphatase was carried out colorimetrically by using their synthetic biotin labeled tyrosine phosphorylated peptide substrates. The enzyme reaction was quenched by the addition of a specific inhibitor, and the phosphorylated and dephosphorylated substrate is immobilized by binding to the streptavidin coated microtitre plate. The fraction of the unmetabolized substrate is determined by its anti phospho tyrosine antibody directly conjugated to peroxidase.
The cells were cultured in sterile 6 well plates at a density of 0.5×10^6/ well in DMEM supplemented with 10% FCS, and allowed to adhere overnight. The medium was changed to DMEM. The cells were treated with appropriate concentrations peptide and their combinations shown in Table VI, for 30 minutes, such that in each case the final peptide concentration was 10^−9M.
The cells were lysed in appropriate lysis buffer (50 mM Tris, containing 0.2 mM PMSF, 1 ug/ml pepstatin and 0.5 ug/ml leupeptin adjusted to pH 7.4). The cell extracts were transferred to microcentrifuge tubes and centrifuged for 5 minutes at 10000×g.
The quantitation of phosphatase enzyme activity was performed with 30 ul of specific substrates and the reaction was quenched with the addition of 100 uM sodium orthvanadate. […] After 3 washings, 100 ul of the substrate POD was added to the wells, and the absorbance was read at 405 nm.

[4] = tested on: Caspase-3 in PA-1 (Ovary) cells; assay: Caspase-3 induction, colorimetric DEVD-pNA, PA-1; conditions: 6 hours, each peptide 10^-8 M
Experimental: PA-1 (Ovary) cells were cultured in 25 cm^2 tissue culture flasks at 37° C. in a humidified incubator containing 5% CO2. When cultures reached pre-confluence individual peptides of the combination and different combinations of the peptides as shown in Table VII were added to different flasks such that the final concentration of each peptide in the flask was 10^−8 M. The untreated flasks served as controls. The cells were incubated with drug for 6 hours.
After 6 hours of incubation cells were collected by trypsin treatment followed by centrifugation at 2000 r.p.m. for 10 minutes. The supernatant was gently removed and discarded and Lysis Buffer was added to the cell pellet (25 ul of lysis buffer per 1×10^4 cells I a 15 ml conical tube) and incubated on ice for 10 minutes and centrifuged at 10,000-×g for 1 minute. 50 ul of supernatant(cell lysate) was transferred to the wells of a 96-well plate. 2×Reaction buffer was prepared by adding 10 ul of fresh DTT stock per 1 ml of 2×Reaction Buffer. […] Following incubation the plate was read on a microplate reader at 405 nm-wavelength light the level of caspase enzymatic activity in the cell lysate was directly proportional to the color reaction. The induction of caspase activity by the subcombinations was calculated as a percentage of control using the formula [(Sample OD/Control OD)−1]*100.

SMILES | % INHIBITION of VEGF secretion [1] [%] | Camp (% of Control) [2] [%] | % Induction of Tyrosine phosphatase [3] [%] | % INDUCTION of Caspase-3 [4] [%]
CC(C)C[C@H](NC(=O)[C@@H](Cc1c[nH]c2ccccc12)NC(=O)[C@H](Cc1ccccc1)NC(=O)[C@@H](Cc1c[nH]c2ccccc12)NC(=O)[C@H](CCC(N)=O)NC(=O)[C@@H](Cc1ccccc1)NC(=O)[C@@H]1CCCN1C(=O)[C@H](CCCCN)NC(=O)[C@@H]1CCCN1C(=O)[C@H](N)CCCNC(=N)N)C(=O)NC1(C(N)=O)CCCC1 [SEQ ID NO:3, D-Arg-Pro-Lys-Pro-D-Phe-Gln-D-Trp-Phe-D-Trp-Leu-Ac5c-NH2] (H-[dR]PKP[dF]Q[dW]F[dW]L[Ac5c]-NH2; N-terminus assumed) | 17.5 ± 1.9 | 14 | 12 | 19.5
CSCC[C@H](NC(=O)[C@@H](N)CC(C)C)C(=O)N[C@@H](Cc1ccc(O)cc1)C(=O)N1CCC[C@H]1C(=O)N[C@H](C(=O)N[C@@H](Cc1ccc(O)cc1)C(=O)N[C@@H](CC(C)C)C(=O)N[C@@H](CCCCN)C(=O)O)[C@@H](C)O [SEQ ID NO:1, Leu-Met-Tyr-Pro-Thr-Tyr-Leu-Lys-OH] (H-LMYPTYLK-OH; N-terminus assumed) | – | 30 | – | –
C[C@@H](O)[C@H](NC(=O)[C@H]1NC(=O)C2(CCCC2)NC(=O)[C@H](CCCN)NC(=O)[C@@H](Cc2c[nH]c3ccccc23)NC(=O)[C@H](Cc2ccc(O)cc2)NC(=O)[C@@H](NC(=O)[C@H](N)Cc2ccccc2)CSSC1(C)C)C(N)=O [SEQ ID NO:4, D-Phe-Cys-Tyr-D-Trp-Om-Ac5c -Pen-Thr-NH2] | 12.4 ± 2.3 | 15 | 10 | 12.4
CCCC(=O)N[C@H](Cc1ccccc1)C(=O)N[C@@H](CCC(N)=O)C(=O)N[C@@H](Cc1c[nH]c2ccccc12)C(=O)N[C@@H](C)C(=O)N[C@H](C(=O)NC(C)(C)C(=O)N[C@@H](Cc1c[nH]cn1)C(=O)N[C@@H](CC(C)C)C(N)=O)C(C)C [SEQ ID NO:2, Butanoyl-D-Phe-Gln-Trp-Ala-Val-Aib-His-Leu-NH2] (Butyryl-[dF]QWAV[Aib]HL-NH2) | – | 18 | – | –
